Source: US20240307362A1 (priority 2019, published 2024)
Where “and” joins values, the source holds several entries; their conditions need not be identical. Equal values may be shown once. Read-outs that look alike come from different tables or passages of the source.

Columns and labels:
Ba/F3-EGFR-WT = test: Ba/F3 cell survival assay, WT EGFR; assay type: cell-based
[1] = target: mutEGFR (D770_N771insSVD) (Homo sapiens (Human), UniProt P00533, INS770SVD); test: biochemical; conditions: mutEGFR (D770_N771 insSVD) at 2 mM ATP IC50, 2 mM ATP
human Bub1 = human Bub1 (Homo sapiens (Human), UniProt O43683); test: Bub1 high ATP kinase assay (TR-FRET); assay type: biochemical
Source text: Bub1-inhibitory activity of compounds of the present invention at a high ATP concentration was quantified employing the Bub1 TR-FRET high ATP kinase assay as described in the following paragraphs.
N-terminally His6-tagged recombinant catalytic domain of human Bub1 (amino acids 704-1085), expressed in insect cells (Hi5) and purified by Ni-NTA affinity chromatography and subsequent size exclusion chromatography, was used as enzyme.

Ba/F3-EGFR-insSVD = test: Ba/F3 cell survival assay, EGFR-insSVD; assay type: cell-based
How it was run: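 Ba/F3 cells stably expressing WT EGFR or EGFR-insSVD via retrovirus, grown without IL-3 on 10 ng/mL EGF, plated at 4000 cells/well. Compound exposure 48 h at 37 °C; viability read by CellTiter-Glo luminescence.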

[2] = read-out: BA/F3 (wild type) IC50, cell viability, Cell Titer-Glo, 48 h, with 10 ng/mL EGF, without IL-3
[3] = read-out: Bub1 high ATP (2 mM) IC50, 2 mM ATP
[4] = read-out: BA/F3 (insSVD) IC50, cell viability, Cell Titer-Glo, 48 h, with 10 ng/mL EGF, without IL-3
[5] = Mus musculus, BaF3, 48 h, read-out: BA/F3 (wild type) IC50, cell viability, Cell Titer-Glo, 48 h, with 10 ng/mL EGF, without IL-3
[6] = Mus musculus, BaF3, 48 h, read-out: BA/F3 (insSVD) IC50, cell viability, Cell Titer-Glo, 48 h, with 10 ng/mL EGF, without IL-3
[7] = Bub1 high ATP (2 mM) IC50, 2 mM ATP

mutEGFR (D770_N771insSVD), sequence (P00533 other isoform, or with tags, fused parts or gaps ins SVD behind 770): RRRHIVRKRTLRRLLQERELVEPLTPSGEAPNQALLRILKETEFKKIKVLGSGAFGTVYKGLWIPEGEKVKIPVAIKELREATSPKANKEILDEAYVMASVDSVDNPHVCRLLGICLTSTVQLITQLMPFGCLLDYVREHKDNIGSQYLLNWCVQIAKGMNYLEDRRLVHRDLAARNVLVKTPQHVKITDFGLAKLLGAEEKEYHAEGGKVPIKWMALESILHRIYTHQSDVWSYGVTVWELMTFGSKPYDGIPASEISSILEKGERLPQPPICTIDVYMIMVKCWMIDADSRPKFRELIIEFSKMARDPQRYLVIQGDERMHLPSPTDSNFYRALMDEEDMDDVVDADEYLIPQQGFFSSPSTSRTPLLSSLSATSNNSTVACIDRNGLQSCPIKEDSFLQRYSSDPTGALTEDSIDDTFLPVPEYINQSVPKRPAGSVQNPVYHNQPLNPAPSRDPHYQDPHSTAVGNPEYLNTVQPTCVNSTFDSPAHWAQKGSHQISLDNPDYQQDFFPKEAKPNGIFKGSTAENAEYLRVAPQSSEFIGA
human Bub1, sequence (O43683 704-1085): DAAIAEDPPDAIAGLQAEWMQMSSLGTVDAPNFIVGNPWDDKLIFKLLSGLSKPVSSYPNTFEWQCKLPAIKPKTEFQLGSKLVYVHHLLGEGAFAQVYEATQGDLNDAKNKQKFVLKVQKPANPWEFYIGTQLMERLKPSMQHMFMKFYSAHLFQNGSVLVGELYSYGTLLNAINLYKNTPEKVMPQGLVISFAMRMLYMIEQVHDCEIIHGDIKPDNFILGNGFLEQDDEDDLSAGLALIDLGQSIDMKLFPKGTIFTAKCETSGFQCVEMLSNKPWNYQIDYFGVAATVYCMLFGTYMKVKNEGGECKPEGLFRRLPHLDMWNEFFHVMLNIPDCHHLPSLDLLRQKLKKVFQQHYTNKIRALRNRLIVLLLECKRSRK

Row | SMILES | IC50 (Ba/F3-EGFR-WT; [2]) [nM] | IC50 [1] [nM] | IC50 (human Bub1; [3]) [nM] | IC50 (Ba/F3-EGFR-insSVD; [4]) [nM] | IC50 (Ba/F3-EGFR-WT; [5]) [nM] | IC50 (Ba/F3-EGFR-insSVD; [6]) [nM] | IC50 (human Bub1; [7])
1 | Cc1cccc(Nc2c(-c3ccncc3OCC3(C)CCO3)[nH]c3c2C(=O)NCC3)c1Cl (single isomer, unassigned; (+)) [Example 56, (+)-3-(2-chloro-3-methylanilino)-2-{3-[(2-methyloxetan-2-yl)methoxy]pyridin-4-yl}-1,5,6,7-tetrahydro-4H-pyrrolo[3,2-c]pyridin-4-one] | 489 | 0.15 | 16100 | 35.1 | – | – | –
2 | COc1c(Cl)cccc1Nc1c(-c2ccncc2OC[C@@H]2CCN2CC(F)(F)F)[nH]c2c1C(=O)NCC2 [Example 29, 3-(3-chloro-2-methoxyanilino)-2-(3-{[(2S)-1-(2,2,2-trifluoroethyl)azetidin-2-yl]methoxy}pyridin-4-yl)-1,5,6,7-tetrahydro-4H-pyrrolo[3,2-c]pyridin-4-one] | – | 0.304 | – | – | 1040 | 60.8 | –
3 | CCC1(COc2cnccc2-c2[nH]c3c(c2Nc2cccc(C)c2Cl)C(=O)NCC3)COC1 [Example 86, 3-(2-chloro-3-methylanilino)-2-{3-[(3-ethyloxetan-3-yl)methoxy]pyridin-4-yl}-1,5,6,7-tetrahydro-4H-pyrrolo[3,2-c]pyridin-4-one] | – | 0.187 | > 5700 | – | 899 | 255 | –
4 | CCN1CC[C@H]1COc1cnccc1-c1[nH]c2c(c1Nc1cccc(Cl)c1OC)C(=O)NCC2 [Example 28, 3-(3-chloro-2-methoxyanilino)-2-(3-{[(2S)-1-ethylazetidin-2-yl]methoxy}pyridin-4-yl)-1,5,6,7-tetrahydro-4H-pyrrolo[3,2-c]pyridin-4-one] | – | 1.06 | – | – | 1780 | 181 | –
5 | Cc1c(F)cccc1Nc1c(-c2ccncc2OCC2(C)CCO2)[nH]c2c1C(=O)NCC2 (racemic) [Example 83, 3-(3-fluoro-2-methylanilino)-2-(3-{[2-methyloxetan-2-yl]methoxy}pyridin-4-yl)-1,5,6,7-tetrahydro-4H-pyrrolo[3,2-c]pyridin-4-one] | – | 0.246 | > 20000 | – | 986 | 41.9 | –
6 | Cc1c(F)cccc1Nc1c(-c2ccncc2OCC2(C)CCO2)[nH]c2c1C(=O)NCC2 (single isomer, unassigned; (-)) [Example 84, (−)-3-(3-fluoro-2-methylanilino)-2-(3-{[2-methyloxetan-2-yl]methoxy}pyridin-4-yl)-1,5,6,7-tetrahydro-4H-pyrrolo[3,2-c]pyridin-4-one] | – | 0.156 | 14900 | 306 | 1290 | – | –
7 | COc1c(Cl)cc(F)cc1Nc1c(-c2ccncc2OCC2(C)CCO2)[nH]c2c1C(=O)NCC2 (single isomer, unassigned) [Example 70, 3-(3-chloro-5-fluoro-2-methoxyanilino)-2-(3-{[2-methyloxetan-2-yl]methoxy}pyridin-4-yl)-1,5,6,7-tetrahydro-4H-pyrrolo[3,2-c]pyridin-4-one] | 537 | 0.161 | – | 32.7 | – | – | 18800 nM and > 20000 nM
8 | COc1c(F)cccc1Nc1c(-c2ccncc2OC[C@H]2CCN2C)[nH]c2c1C(=O)NCC2 [Example 79, 3-(3-fluoro-2-methoxyanilino)-2-(3-{[(2R)-1-methylazetidin-2-yl]methoxy}pyridin-4-yl)-1,5,6,7-tetrahydro-4H-pyrrolo[3,2-c]pyridin-4-one] | – | 0.718 | – | – | 712 | 113 | –
9 | O=C1NCCc2[nH]c(-c3ccncc3OCC3COC3)c(Nc3cccc(F)c3Cl)c21 [Example 16, 3-(2-chloro-3-fluoroanilino)-2-{3-[(oxetan-3-yl)methoxy]pyridin-4-yl}-1,5,6,7-tetrahydro-4H-pyrrolo[3,2-c]pyridin-4-one] | – | 0.0988 | 13900 | – | 1140 | 193 | –
10 | COc1c(Cl)cc(F)cc1Nc1c(-c2ccncc2OCC2(C)CCO2)[nH]c2c1C(=O)NCC2 (single isomer, unassigned) [Example 69, 3-(3-chloro-5-fluoro-2-methoxyanilino)-2-(3-{[2-methyloxetan-2-yl]methoxy}pyridin-4-yl)-1,5,6,7-tetrahydro-4H-pyrrolo[3,2-c]pyridin-4-one] | 1430 | 0.317 | – | 241 | – | – | 13500 nM
11 | COc1c(Cl)cccc1Nc1c(-c2ccncc2OC[C@@H]2CCN2C)[nH]c2c1C(=O)NCC2 [Example 27, 3-(3-chloro-2-methoxyanilino)-2-(3-{[(2S)-1-methylazetidin-2-yl]methoxy}pyridin-4-yl)-1,5,6,7-tetrahydro-4H-pyrrolo[3,2-c]pyridin-4-one] | – | 0.445 | – | – | 937 | 36.5 | –
12 | COc1c(Cl)cccc1Nc1c(-c2ccncc2OC[C@H]2CCN2CC(F)(F)F)[nH]c2c1C(=O)NCC2 [Example 30, 3-(3-chloro-2-methoxyanilino)-2-(3-{[(2R)-1-(2,2,2-trifluoroethyl)azetidin-2-yl]methoxy}pyridin-4-yl)-1,5,6,7-tetrahydro-4H-pyrrolo[3,2-c]pyridin-4-one] | – | 0.346 | – | – | 402 | 10.4 | –
13 | COc1c(F)cccc1Nc1c(-c2ccncc2OCCC2CCO2)[nH]c2c1C(=O)NCC2 (single isomer, unassigned) [Example 45, 3-(3-fluoro-2-methoxyanilino)-2-{3-[2-(oxetan-2-yl)ethoxy]pyridin-4-yl}-1,5,6,7-tetrahydro-4H-pyrrolo[3,2-c]pyridin-4-one] | 746 | – | – | 46.4 | – | – | 12700 nM
14 | COc1c(Cl)cccc1Nc1c(-c2ccncc2OCC2(C)CCN2CC(F)(F)F)[nH]c2c1C(=O)NCC2 (stereo not shown) [Example 32, 3-(3-chloro-2-methoxyanilino)-2-(3-{[2-methyl-1-(2,2,2-trifluoroethyl)azetidin-2-yl]methoxy}pyridin-4-yl)-1,5,6,7-tetrahydro-4H-pyrrolo[3,2-c]pyridin-4-one] | – | – | > 20000 | – | 298 | 12.2 | –
15 | O=C1NCCc2[nH]c(-c3ccncc3OCC3CCO3)c(Nc3cccc(Cl)c3Cl)c21 (racemic) [Example 10, 3-(2,3-dichloroanilino)-2-{3-[(oxetan-2-yl)methoxy]pyridin-4-yl}-1,5,6,7-tetrahydro-4H-pyrrolo[3,2-c]pyridin-4-one] | – | – | 13800 | – | 1040 | 65.9 | –
16 | COc1c(F)cccc1Nc1c(-c2ccncc2OCC2COC2)[nH]c2c1C(=O)NCC2 [Example 18, 3-(3-fluoro-2-methoxyanilino)-2-{3-[(oxetan-3-yl)methoxy]pyridin-4-yl}-1,5,6,7-tetrahydro-4H-pyrrolo[3,2-c]pyridin-4-one] | – | – | 12100 | – | 819 | 80.1 | –
17 | COc1c(F)cccc1Nc1c(-c2ccncc2OCC2(F)COC2)[nH]c2c1C(=O)NCC2 [Example 61, 3-(3-fluoro-2-methoxyanilino)-2-{3-[(3-fluorooxetan-3-yl)methoxy]pyridin-4-yl}-1,5,6,7-tetrahydro-4H-pyrrolo[3,2-c]pyridin-4-one] | – | – | > 20000 | – | 3570 | 445 | –
18 | Cc1c(Cl)cccc1Nc1c(-c2ccncc2OCC2CCO2)[nH]c2c1C(=O)NCC2 (racemic) [Example 7, 3-(3-chloro-2-methylanilino)-2-{3-[(oxetan-2-yl)methoxy]pyridin-4-yl}-1,5,6,7-tetrahydro-4H-pyrrolo[3,2-c]pyridin-4-one] | – | – | 2630 | – | 820 | 48.2 | –
